Experimental data from patent publication US20230021483A1, “[…] […] METHOD AND CLASSIFICATION OF PHARMACEUTICAL COMPONENTS BY USING TRANSCRIPTOMES” (National Institutes of Biomedical Innovation, Health and …, priority 2016, published 2023).

System: preferentially upregulated genes in LV, SP, LN
Experiment: Z-score-based differential gene expression analysis (adjuvant group- or adjuvant-associated genes, 40 module mapping, TargetMine annotation)
Assay type: in vivo, C57BL/6 mice
Settings: for Mndal 1426906_at (Group G1, Modules 20) / Pml 1448757_at (Group G1, Modules 20) / Pml 1456103_at (Group G1, Modules 20) / Rnf213 1455500_at (Group G1, Modules 20) / Rsad2 1436058_at (Group G1, Modules 20) / Shisa5 1423986_a_at (Group G1, Modules 20) / Shisa5 1437503_a_at (Group G1, Modules 20) / Stat1 1450033_a_at (Group G1, Modules 20) / Stat1 1450034_at (Group G1, Modules 20) / Tdrd7 1426716_at (Group G1, Modules 20) / Tor1aip2 1418115_s_at (Group G1, Modules 20) / Tor1aip2 1418116_at (Group G1, Modules 20) / Tor1aip2 1435526_at (Group G1, Modules 20) / Trim12a 1437432_a_at (Group G1, Modules 20) / Uba7 1426970_a_at (Group G1, Modules 20) / Adar 1425405_a_at (Group G1, Modules 20) / Adar 1434268_at (Group G1, Modules 20) / Ddx58 1436562_at (Group G1, Modules 20) / Ddx58 1456890_at (Group G1, Modules 20) / Eif2ak2 1422005_at (Group G1, Modules 20) / G3bp2 1421323_a_at (Group G1, Modules 20) / Gm9706///Isg15 1431591_s_at (Group G1, Modules 20) / H2-T10///H2-T22///H2-T9 1449875_s_at (Group G1, Modules 20) / Ifih1 1426276_at (Group G1, Modules 20) / Ifit1 1450783_at (Group G1, Modules 20) / Ifit3 1449025_at (Group G1, Modules 20) / Irf7 1417244_a_at (Group G1, Modules 20) / Irgm1 1418825_at (Group G1, Modules 20): ID, LV
Source text: Each sample's FC value was converted into a z-score on a gene basis by using the entire data set for each organ. The Z-score of the triplicates of interest were summed for each adjuvant. For example, the three sample z-score in the LV sample following cdiGMP administration was summed on a gene-by-gene basis, after which the summed scores of >3 genes were selected as relatively preferentially expressed genes in the LV after cdiGMP administration. The following threshold was applied for selections. […] G2^LV: ALM_IP(z>1) & bCD(z>1) & ENDCN(z>1) & FCA(z>1). […] G4^LV: MALP2s(z>3). […] G2^SP: ENDCN_x2+ENDCN_x3(z>2) & ALM_IP(z>3) & bCD(z>3). […] G4^SP: ADX_ID_x2+ADX_ID_x3(z>2) & ADX_IP(z>3) & MALP2s(z>3). […] G2^LN: bCD(z>3) & FCA(z>3). […] G5^LN: K3(z>1.5) & K3SPG_x1+K3SPG_x2(z>1) & D35_x1+D35_x3(z>1). G6^LN: AddaVax(z>3).

`Cc1ccc2c(=O)c3cccc(CC(=O)O)c3oc2c1C` [DMXAA, 5,6-dimethylxanthenone-4-acetic acid] was tested, and the “Mndal 1426906_at (Group G1, Modules 20)” value (sample x1) was 1.42, the “Pml 1448757_at (Group G1, Modules 20)” value (sample x1) was 1.62 and the “Pml 1456103_at (Group G1, Modules 20)” value (sample x1) was 2.18. For the same compound, the “Rnf213 1455500_at (Group G1, Modules 20)” value (sample x1) was 1.79, the “Rsad2 1436058_at (Group G1, Modules 20)” value (sample x1) was 1.56 and the “Shisa5 1423986_a_at (Group G1, Modules 20)” value (from here on “Shisa5 1423986_a_at”) (sample x1) was 2.03. The “Shisa5 1437503_a_at (Group G1, Modules 20)” value (from here on “Shisa5 1437503_a_at”) (sample x1) was 2.12, the “Stat1 1450033_a_at (Group G1, Modules 20)” value (from here on “Stat1 1450033_a_at”) (sample x1) was 1.5 and the “Stat1 1450034_at (Group G1, Modules 20)” value (sample x1) was 1.53. For the same compound, the “Tdrd7 1426716_at (Group G1, Modules 20)” value (sample x1) was 1.6, the “Tor1aip2 1418115_s_at (Group G1, Modules 20)” value (“Tor1aip2 1418115_s_at” for short) (sample x1) was 2.45 and the “Tor1aip2 1418116_at (Group G1, Modules 20)” value (“Tor1aip2 1418116_at” below) (sample x1) was 2.19. The “Tor1aip2 1435526_at (Group G1, Modules 20)” value (“Tor1aip2 1435526_at” for short) (sample x1) was 2.23, the “Trim12a 1437432_a_at (Group G1, Modules 20)” value (from here on “Trim12a 1437432_a_at”) (sample x1) was 1.82 and the “Uba7 1426970_a_at (Group G1, Modules 20)” value (sample x1) was 1.81. For the same compound, the “Adar 1425405_a_at (Group G1, Modules 20)” value (sample x2) was 1.5, the “Adar 1434268_at (Group G1, Modules 20)” value (sample x2) was 1.52 and the “Ddx58 1436562_at (Group G1, Modules 20)” value (sample x2) was 1.54. The “Ddx58 1456890_at (Group G1, Modules 20)” value (sample x2) was 1.93, the “Eif2ak2 1422005_at (Group G1, Modules 20)” value (sample x2) was 1.3 and the “G3bp2 1421323_a_at (Group G1, Modules 20)” value (sample x2) was 1.22. For the same compound, the “Gm9706///Isg15 1431591_s_at (Group G1, Modules 20)” value (sample x2) was 1.39, the “H2-T10///H2-T22///H2-T9 1449875_s_at (Group G1, Modules 20)” value (sample x2) was 1.64 and the “Ifih1 1426276_at (Group G1, Modules 20)” value (sample x2) was 1.09. The “Ifit1 1450783_at (Group G1, Modules 20)” value (sample x2) was 1.54, the “Ifit3 1449025_at (Group G1, Modules 20)” value (sample x2) was 1.3 and the “Irf7 1417244_a_at (Group G1, Modules 20)” value (sample x2) was 1.18. The “Irgm1 1418825_at (Group G1, Modules 20)” value (sample x2) was 1.33, the “Mndal 1426906_at (Group G1, Modules 20)” value (sample x2) was 1.19 and the “Pml 1448757_at (Group G1, Modules 20)” value (sample x2) was 1.35. The “Pml 1456103_at (Group G1, Modules 20)” value (sample x2) was 1.34, the “Rnf213 1455500_at (Group G1, Modules 20)” value (sample x2) was 1.2 and the “Rsad2 1436058_at (Group G1, Modules 20)” value (sample x2) was 1.25. The “Shisa5 1423986_a_at” value (sample x2) was 1.81, the “Shisa5 1437503_a_at” value (sample x2) was 1.62 and the “Stat1 1450033_a_at” value (sample x2) was 1.73. For the same compound, the “Stat1 1450034_at (Group G1, Modules 20)” value (sample x2) was 1.96, the “Tdrd7 1426716_at (Group G1, Modules 20)” value (sample x2) was 1.74 and the “Tor1aip2 1418115_s_at” value (sample x2) was 1.52. The “Tor1aip2 1418116_at” value (sample x2) was 1.92, the “Tor1aip2 1435526_at” value (sample x2) was 1.48 and the “Trim12a 1437432_a_at” value (sample x2) was 1.56. The “Uba7 1426970_a_at (Group G1, Modules 20)” value (sample x2) was 1.59, the “Adar 1425405_a_at (Group G1, Modules 20)” value (sample x3) was 0.93 and the “Adar 1434268_at (Group G1, Modules 20)” value (sample x3) was 0.92. The “Ddx58 1436562_at (Group G1, Modules 20)” value (sample x3) was 1.31, the “Ddx58 1456890_at (Group G1, Modules 20)” value (sample x3) was 1.56 and the “Eif2ak2 1422005_at (Group G1, Modules 20)” value (sample x3) was 0.68. The “G3bp2 1421323_a_at (Group G1, Modules 20)” value (sample x3) was 0.71, the “Gm9706///Isg15 1431591_s_at (Group G1, Modules 20)” value (sample x3) was 0.8 and the “H2-T10///H2-T22///H2-T9 1449875_s_at (Group G1, Modules 20)” value (sample x3) was 0.51. The “Ifih1 1426276_at (Group G1, Modules 20)” value (sample x3) was 0.78, the “Ifit1 1450783_at (Group G1, Modules 20)” value (sample x3) was 1.04 and the “Ifit3 1449025_at (Group G1, Modules 20)” value (sample x3) was 0.74. The “Irf7 1417244_a_at (Group G1, Modules 20)” value (sample x3) was 1, the “Irgm1 1418825_at (Group G1, Modules 20)” value (sample x3) was 0.79 and the “Mndal 1426906_at (Group G1, Modules 20)” value (sample x3) was 0.73. For the same compound, the “Pml 1448757_at (Group G1, Modules 20)” value (sample x3) was 0.83, the “Pml 1456103_at (Group G1, Modules 20)” value (sample x3) was 0.34 and the “Rnf213 1455500_at (Group G1, Modules 20)” value (sample x3) was 0.97. For the same compound, the “Rsad2 1436058_at (Group G1, Modules 20)” value (sample x3) was 0.44, the “Shisa5 1423986_a_at” value (sample x3) was 1.42 and the “Shisa5 1437503_a_at” value (sample x3) was 1.72. The “Stat1 1450033_a_at” value (sample x3) was 1.15, the “Stat1 1450034_at (Group G1, Modules 20)” value (sample x3) was 1.16 and the “Tdrd7 1426716_at (Group G1, Modules 20)” value (sample x3) was 1.09. For the same compound, the “Tor1aip2 1418115_s_at” value (sample x3) was 0.98, the “Tor1aip2 1418116_at” value (sample x3) was 1.37 and the “Tor1aip2 1435526_at” value (sample x3) was 1.01. For the same compound, the “Trim12a 1437432_a_at” value (sample x3) was 1.11, the “Uba7 1426970_a_at (Group G1, Modules 20)” value (sample x3) was 1.21 and the “preferentially induced biological process relative to adjuvants targeting the same receptor” value (LN, z-scores and 40 module mapping) was “preferentially induced RNA processing and gene expression responses more than cdiGMP or cGAMP”. The “adjuvant group-associated biological features” value (z-score selected genes, TargetMine and IPA upstream cytokine analyses) was “strongly associated with type I and type II interferon responses”.
